Measured values as given in US4201860A, “Purine derivatives” (Bristol-Myers Company, priority 1979, dated 1980).

How the values were obtained:
[1] = test system: platelet aggregation; conditions: in words; Chem Pharm. Bull., 25(7), 1811-1821 (1977); cited from earlier work
[2] = test system: arterial blood pressure / intratracheal pressure; assay: Separation of bronchodilator and cardiovascular effects, ratio of hypotensive ED20 / bronchodilating ED50; type: in vivo, guinea pig
Method: (§1) The trachea of anesthetized guinea pig was cannulated and the ITP recorded on a polygraph under artificial ventilation. Arterial blood pressure (ABP; measure of hypotensive activity) was also measured during the experiment. Data was obtained for both intravenous and intraduodenal administration.
To assess the separation of desirable bronchodilator activity from undesirable cardiovascular (hypotensive) effect in the test compounds, the ratio of hypotensive ED20 /bronchodilating ED50 was calculated and indicated in Table 1.

[3] = test system: Arterial blood pressure (ABP); assay: In vivo hypotensive activity, arterial blood pressure (ABP) in anesthetized guinea pig; conditions: arterial blood pressure lowering (ED20, 20% reduction)
Method: as §1, with “Pharmac., 21, 379 (1969). The” for “The”

[4] = in words; cited from earlier work
[5] = in words; known disadvantages; cited from earlier work

## Nc1nc(SC2CCCC2)nc2c1ncn2C1CCCC1
[1]
  platelet aggregation inhibition: slightly effective

## CCOc1nc(N)c2ncn(C3C=CCCC3)c2n1 (stereo not shown) [C2 H5 O]
[2]; Intraduodenal
  ABP/ITP: 19
[2]; Intravenous
  ABP/ITP: 12
[3]; Intraduodenal
  ABP lowering, ED20 (20% reduction): 12 mg/kg
[3]; Intravenous
  ABP lowering, ED20 (20% reduction): 4.0 mg/kg

## CCOc1nc(N)c2ncn(C3CCCCC3)c2n1 [C2 H5 O]
[2]; Intravenous
  ABP/ITP: 6.8
[3]; Intravenous
  ABP lowering, ED20 (20% reduction): 2.5 mg/kg

## Nc1nc(Cl)nc2c1ncn2C1C=CCCC1 (stereo not shown) [Cl]
[2]; Intravenous
  ABP/ITP: 17
[3]; Intravenous
  ABP lowering, ED20 (20% reduction): 2.5 mg/kg

## Cn1c(=O)c2[nH]cnc2n(C)c1=O [aminophylline]
[4]
  solubility: readily soluble
[5]
  side effects: gastric irritation and cardiovascular and central nervous system side effects

## CC(C)COc1nc(N)c2ncn(C3C=CCCC3)c2n1 (stereo not shown) [iso-C4 H9 O]
[3]; Intravenous
  ABP lowering, ED20 (20% reduction): 2.4 mg/kg

## CC(C)COc1nc(N)c2ncn(C3CCCCC3)c2n1 [iso-C4 H9 O]
[3]; Intravenous
  ABP lowering, ED20 (20% reduction): > 3 mg/kg

## CCCOc1nc(N)c2ncn(C3C=CCCC3)c2n1 (stereo not shown) [n-C3 H7 O]
[2]; Intraduodenal
  ABP/ITP: 2.0
[2]; Intravenous
  ABP/ITP: 5.9
[3]; Intraduodenal
  ABP lowering, ED20 (20% reduction): 2.4 mg/kg
[3]; Intravenous
  ABP lowering, ED20 (20% reduction): 2.0 mg/kg

## CCCOc1nc(N)c2ncn(C3CCCCC3)c2n1 [n-C3 H7 O]
[2]; Intraduodenal
  ABP/ITP: 15
[2]; Intravenous
  ABP/ITP: 12
[3]; Intraduodenal
  ABP lowering, ED20 (20% reduction): 18 mg/kg
[3]; Intravenous
  ABP lowering, ED20 (20% reduction): 4.4 mg/kg

## CCCCOc1nc(N)c2ncn(C3C=CCCC3)c2n1 (stereo not shown) [n-C4 H9 O]
[2]; Intravenous
  ABP/ITP: > 4.8
[3]; Intravenous
  ABP lowering, ED20 (20% reduction): > 3 mg/kg

## CCCCOc1nc(N)c2ncn(C3CCCCC3)c2n1 [n-C4 H9 O]
[2]; Intraduodenal
  ABP/ITP: 5.9
[2]; Intravenous
  ABP/ITP: 1467
[3]; Intraduodenal
  ABP lowering, ED20 (20% reduction): 8.3 mg/kg
[3]; Intravenous
  ABP lowering, ED20 (20% reduction): 4.4 mg/kg

## CCCCCOc1nc(N)c2ncn(C3C=CCCC3)c2n1 (stereo not shown) [n-C5 H11 O]
[3]; Intravenous
  ABP lowering, ED20 (20% reduction): > 3 mg/kg

## CCCCCOc1nc(N)c2ncn(C3CCCCC3)c2n1 [n-C5 H11 O]
[3]; Intravenous
  ABP lowering, ED20 (20% reduction): > 3 mg/kg

## CCCCCCOc1nc(N)c2ncn(C3C=CCCC3)c2n1 (stereo not shown) [n-C6 H13 O]
[3]; Intravenous
  ABP lowering, ED20 (20% reduction): 2.7 mg/kg

## CCCCCCOc1nc(N)c2ncn(C3CCCCC3)c2n1 [n-C6 H13 O]
[3]; Intravenous
  ABP lowering, ED20 (20% reduction): > 3 mg/kg
